Test results published in patent publication US20250262222A1, “HETEROCYCLIC COMPOUNDS, COMPOSITIONS THEREOF, AND METHODS OF TREATMENT THEREWITH” (BeiGene Switzerland GmbH, priority 2022, published 2025).

How the values were obtained:
[1] = test system: pERK1/2(THR202/TYR204) level in SW620 cell line; test: KRAS G12V pERK assay; type: cell-based; settings: Homo sapiens, SW-620; SW620 cells, 2 hrs compound treatment, HTRF
Method: (§1) SW620 cell line was used in this study. Cells were maintained in RPMI 1640 supplemented with 10% fetal bovine serum (Thermo Fisher), 50 units/mL penicillin and streptomycin (Thermo Fisher) and kept at 37° C. in a humidified atmosphere of 5% CO2 in air. Cells were reinstated from frozen stocks that were laid down within 30 passages from the original cells purchased. 40000 cells per well were seeded into a 96-well plate and incubated overnight. Cells were treated with a 10-point dilution series. The final compound concentration is from 0 to 10 μM. After 2 hrs compound treatment, cells were lysed, and the pERK1/2(THR202/TYR204) level in the cell lysates was detected by HTRF kit (Cisbio). In brief, a total of 16 μL of cell lysate from each well of a 96-well plate was transferred to a 384-well white assay plate. Lysate from each well was incubated with 2 μL of Eu3+-cryptate (donor) labeled anti-phospho-ERK1/2 and 2 μL of D2 (acceptor) labeled anti-phospho-ERK1/2 antibodies (Cisbio) overnight in dark at room temperature. When donor and acceptor are in close proximity, excitation of the donor with laser triggers a Fluorescence Resonance Energy Transfer (FRET) towards the acceptor, which in turn fluoresces at 655 nm wavelength. FRET signals were measured using a PHERAstar FSX reader (BMG Labtech). IC50 determination was performed by fitting the curve of percent inhibition versus the log of the inhibitor concentration using Dotmatics.

[2] = test system: pERK1/2(THR202/TYR204) level in AsPC-1 cell line; test: KRAS G12D pERK assay; type: cell-based; settings: Homo sapiens, ASPC1, 2 h, AsPC-1 cells, 2 h compound treatment, HTRF
Method: as §1, with “AsPC-1” for “SW620”, “RPMI-1640” for “RPMI 1640”, “30000” for “40000”, “h” for “hrs”

For `Nc1cc(Cl)c(C(F)(F)F)c(-c2nc3c4c(nc(OC[C@@]56CCCN5C[C@H](F)C6)nc4c2F)N2CCOC[C@H]2CO3)c1` [Example 3, 3-chloro-5-((S)-1-fluoro-11-(((2R,7aS)-2-fluorotetrahydro-1H-pyrrolizin-7a(5H)-yl)methoxy)-5a,6,8,9-tetrahydro-5H-4,7-dioxa-3,9a,10,12-tetraazabenzo[4,5]cyclohepta[1,2,3-de]naphthalen-2-yl)-4-(trifluoromethyl)aniline], the IC50 [1] was 133 nM.

In the case of `N#Cc1c(N)sc2c(F)ccc(-c3c(Cl)c4c5c(nc(OC[C@@]67CCCN6C[C@H](F)C7)nc5c3F)N3CCOC[C@@H]3CCO4)c12` [Example 18], the IC50 [1] is reported as 30 nM.

`Nc1cc(Cl)c(C(F)(F)F)c(-c2nc3c4c(nc(OC[C@@]56CCCN5C[C@H](F)C6)nc4c2F)N2CCOC[C@@H]2CCO3)c1` [Example 16, 3-chloro-5-((S)-1-fluoro-12-(((2R,7aS)-2-fluorotetrahydro-1H-pyrrolizin-7a(5H)-yl)methoxy)-5,6,6a,7,9,10-hexahydro-4,8-dioxa-3,10a,11,13-tetraazabenzo[4,5]cycloocta[1,2,3-de]naphthalen-2-yl)-4-(trifluoromethyl)aniline] was tested, and the IC50 [1] was 24 nM.

Compound `N#Cc1c(N)sc2c(F)ccc(-c3c(Cl)c4c5c(nc(OC[C@@]67CCCN6C[C@H](F)C7)nc5c3F)N3C5CCC3(COC5)CO4)c12` (stereo partly drawn) [Example 15, 2-amino-4-(11-chloro-9-fluoro-7-(((2R,7aS)-2-fluorotetrahydro-1H-pyrrolizin-7a(5H)-yl)methoxy)-3,4-dihydro-1H,13H-4,13a-ethano[1,4]oxazino[3′,4′:3,4][1,4]oxazepino[5,6,7-de]quinazolin-10-yl)-7-fluorobenzo[b]thiophene-3-carbonitrile] has an IC50 [1] of 83 nM.

In the case of `C#Cc1c(F)ccc2cc(O)cc(-c3cc4c5c(nc(OC[C@@]67CCCN6C[C@H](F)C7)nc5c3F)N3CCOC[C@H]3CO4)c12` [Example 2, 5-ethynyl-6-fluoro-4-((S)-4-fluoro-2-(((2R,7aS)-2-fluorotetrahydro-1H-pyrrolizin-7a(5H)-yl)methoxy)-8a,9,11,12-tetrahydro-8H-[1,4]oxazino[3′,4′:3,4][1,4]oxazepino[5,6,7-de]quinazolin-5-yl)naphthalen-2-ol], the IC50 [1] is reported as 178 nM.

`C#Cc1c(F)ccc2cc(O)cc(-c3nc4c5c(nc(OC[C@@]67CCCN6C[C@H](F)C7)nc5c3F)N3CCOCCC3CO4)c12` (stereo partly drawn) [Example 22, 5-ethynyl-6-fluoro-4-(1-fluoro-12-(((2R,7aS)-2-fluorotetrahydro-1H-pyrrolizin-7a(5H)-yl)methoxy)-5,5a,6,7,9,10-hexahydro-4,8-dioxa-3,10a,11,13-tetraazanaphtho[1,8-ab]heptalen-2-yl)naphthalen-2-ol] showed an IC50 [1] of 13 nM.

With `N#Cc1c(N)sc2c(F)ccc(-c3cc4c5c(nc(OC[C@@]67CCCN6C[C@H](F)C7)nc5c3F)N3CCOC[C@H]3CO4)c12` [Example 1, 2-amino-7-fluoro-4-((S)-4-fluoro-2-(((2R,7aS)-2-fluorotetrahydro-1H-pyrrolizin-7a(5H)-yl)methoxy)-8a,9,11,12-tetrahydro-8H-[1,4]oxazino[3′,4′:3,4][1,4]oxazepino[5,6,7-de]quinazolin-5-yl)benzo[b]thiophene-3-carbonitrile] the IC50 [1] was 161 nM.

With `CCc1c(F)ccc2cc(O)cc(-c3nc4c5c(nc(OC[C@@]67CCCN6C[C@H](F)C7)nc5c3F)N3CCOC[C@H]3CO4)c12` [Example 5, 5-ethyl-6-fluoro-4-((S)-1-fluoro-11-(((2R,7aS)-2-fluorotetrahydro-1H-pyrrolizin-7a(5H)-yl)methoxy)-5a,6,8,9-tetrahydro-5H-4,7-dioxa-3,9a,10,12-tetraazabenzo[4,5]cyclohepta[1,2,3-de]naphthalen-2-yl)naphthalen-2-ol] the IC50 [1] was 22 nM.

For `Oc1cc(Cl)c(C2CC2)c(-c2nc3c4c(nc(OC[C@@]56CCCN5C[C@H](F)C6)nc4c2F)N2CCOC[C@H]2CO3)c1` [Example 6, 3-chloro-4-cyclopropyl-5-((S)-1-fluoro-11-(((2R,7aS)-2-fluorotetrahydro-1H-pyrrolizin-7a(5H)-yl)methoxy)-5a,6,8,9-tetrahydro-5H-4,7-dioxa-3,9a,10,12-tetraazabenzo[4,5]cyclohepta[1,2,3-de]naphthalen-2-yl)phenol], the IC50 [1] was 118 nM.

Compound `N#Cc1c(N)sc2c(F)ccc(-c3c(Cl)c4c5c(nc(OC[C@@]67CCCN6C[C@H](F)C7)nc5c3F)N3CCOC[C@H]3CO4)c12` (single isomer, unassigned) [Example 14-Isomer 2] has an IC50 [1] of 33 nM.

In the case of `C#Cc1c(F)ccc2cc(O)cc(-c3nc4c5c(nc(OC[C@@]67CCCN6C[C@H](F)C7)nc5c3F)N3CCCOC[C@H]3CO4)c12` [Example 20, 5-ethynyl-6-fluoro-4-((S)-1-fluoro-12-(((2R,7aS)-2-fluorotetrahydro-1H-pyrrolizin-7a(5H)-yl)methoxy)-5a,6,9,10-tetrahydro-5H,8H-4,7-dioxa-3,10a,11,13-tetraazanaphtho[1,8-ab]heptalen-2-yl)naphthalen-2-ol], the IC50 [1] is reported as 1.3 nM.

Compound `CC12CCC(COc3nc4c5c(nc(-c6cc(N)cc(Cl)c6C(F)(F)F)c(F)c5n3)OCC[C@@H]3[C@@H]5CC[C@H](CN43)N5)(CO1)C2` [Example 36, 3-chloro-5-((6aR,7S,10R)-1-fluoro-13-((1-methyl-2-oxabicyclo[2.2.1]heptan-4-yl)methoxy)-5,6,6a,7,8,9,10,11-octahydro-4-oxa-3,11a,12,14,15-pentaaza-7,10-methanocyclohepta[4,5]cyclo-octa[1,2,3-de]naphthalen-2-yl)-4-(trifluoromethyl)aniline] has an IC50 [2] of 106 nM.

Compound `Nc1cc(Cl)c(C(F)(F)F)c(-c2nc3c4c(nc(OCC56COC(CF)(C5)C6)nc4c2F)N2C[C@H]4CC[C@H](N4)[C@H]2CCO3)c1` [Example 50, 3-chloro-5-((6aR,7S,10R)-1-fluoro-13-((1-(fluoromethyl)-2-oxabicyclo[2.1.1]hexan-4-yl)methoxy)-5,6,6a,7,8,9,10,11-octahydro-4-oxa-3,11a,12,14,15-pentaaza-7,10-methanocyclohepta[4,5]cyclo-octa[1,2,3-de]naphthalen-2-yl)-4-(trifluoromethyl)aniline] has an IC50 [2] of 109 nM.

In the case of `Cc1cc(N)cc(-c2nc3c4c(nc(OCC56COC(CF)(C5)C6)nc4c2F)N2C[C@H]4CC[C@H](N4)[C@H]2CCO3)c1C(F)(F)F` [Example 49, 3-((6aR,7S,10R)-1-fluoro-13-((1-(fluoromethyl)-2-oxabicyclo[2.1.1]hexan-4-yl)methoxy)-5,6,6a,7,8,9,10,11-octahydro-4-oxa-3,11a,12,14,15-pentaaza-7,10-methanocyclohepta[4,5]cyclo-octa[1,2,3-de]naphthalen-2-yl)-5-methyl-4-(trifluoromethyl)aniline], the IC50 [2] is reported as 172 nM.

For `Nc1cc(Cl)c(C(F)(F)F)c(-c2nc3c4c(nc(OCC5(C(F)F)CCOC5)nc4c2F)N2C[C@H]4CC[C@H](N4)[C@H]2CCO3)c1` (stereo partly drawn) [Example 63, 3-chloro-5-((6aR,7S,10R)-13-((3-(difluoromethyl)tetrahydrofuran-3-yl)methoxy)-1-fluoro-5,6,6a,7,8,9,10,11-octahydro-4-oxa-3,11a,12,14,15-pentaaza-7,10-methanocyclohepta[4,5]cyclo-octa[1,2,3-de]naphthalen-2-yl)-4-(trifluoromethyl)aniline], the IC50 [2] was 151 nM.

`CC12CC(COc3nc4c5c(nc(-c6cc(N)cc(Cl)c6C(F)(F)F)c(F)c5n3)OCC[C@@H]3[C@@H]5CC[C@H](CN43)N5)(CO1)C2` [Example 34, 3-chloro-5-((6aR,7S,10R)-1-fluoro-13-((1-methyl-2-oxabicyclo[2.1.1]hexan-4-yl)methoxy)-5,6,6a,7,8,9,10,11-octahydro-4-oxa-3,11a,12,14,15-pentaaza-7,10-methanocyclohepta[4,5]cyclo-octa[1,2,3-de]naphthalen-2-yl)-4-(trifluoromethyl)aniline] showed an IC50 [2] of 82 nM.

Work on `CC12COCC(COc3nc4c5c(nc(-c6cc(N)cc(Cl)c6C(F)(F)F)c(F)c5n3)OCC[C@@H]3[C@@H]5CC[C@H](CN43)N5)(C1)C2` [Example 48, 3-chloro-5-((6aR,7S,10R)-1-fluoro-13-((5-methyl-3-oxabicyclo[3.1.1]heptan-1-yl)methoxy)-5,6,6a,7,8,9,10,11-octahydro-4-oxa-3,11a,12,14,15-pentaaza-7,10-methanocyclohepta[4,5]cyclo-octa[1,2,3-de]naphthalen-2-yl)-4-(trifluoromethyl)aniline] yielded an IC50 [2] of 296 nM.
